# Strand notation (5' to 3'): a small letter for the sugar, then the base; units joined by * are phosphorothioate-linked, units joined directly phosphodiester-linked; [ ] holds rarer units or linkages, { } end groups; capitals alone tell only the bases. d = 2'-deoxy (DNA)
# System: MCT4
# Assay: Percent inhibition of MCT4 by MCT4 ASOs (knock-down after transfection, qPCR/Western blot)
# Assay type: cell-based, human
# Settings: Table A; ASOs transfected at 100 nM for 48 hours unless otherwise indicated
# Procedure: First-generation phosphorothioate-modified ASOs against human MCT4 were rationally designed by selecting sequences containing favourable motifs while excluding unfavourable ones (Matveeva et al., 2000). Specificity of MCT4-targeting sequences, compared to human and mouse genes (at least 3 of 20 bases mismatched), was evaluated using BLAST. Ten sequences SEQ ID No: 1, 4, 5, 9, 11, 30, 36, 37, 40 and 41 (see TABLE A) distributed throughout the length of the transcript with perfect complementarity to all human MCT4 transcript variants (NM_001042422.2, NM_001042423.2, NM_001206950.1, NM_001206951.1, NM_001206952.1, and NM_004207.3) were selected and synthesized by Eurofins MWG Operon. The knock-down efficiencies of these ten ASOs were tested by determining target mRNA and protein expression 48 hours after transfection of cells using qPCR and Western blotting. Two candidate ASOs (#1 and #14—SEQ ID NOs: 1 and 5, respectively) were selected for further studies. Sequences: ASO #1 (SEQ ID NO: 1), 5′-[…]-3′; ASO #14 (SEQ ID NO: 5), 5′-[…]-3′; a published non-targeting control ASO, 5′-[…]-3′ (Mullick et al., 2011; Samuel et al., 2006).
# Cells were transfected in 6-well plates with ASOs at 100 nM for 48 hours (unless otherwise indicated) using Oligofectamine™ (Invitrogen™, Carlsbad, Calif.) or with MCT4-targeting siRNAs and controls (Dharmacon™, Chicago, Ill.) at 50 nM for 48 hours using Lipofectamine™ 2000 (Invitrogen™), following the manufacturer's instructions.
# Total RNA was isolated using the RNeasy Mini Kit™ (Qiagen Inc.™, Hilden, Germany) and cDNA synthesized using the QuantiTect Reverse Transcription Kit™ (Qiagen™). Primers were designed using Primer-BLAST™. qRT-PCR reactions using KAPA SYBR Fast Universal™ (Kapa Biosystems™, Woburn, Mass.) were performed in triplicate in a ViiA 7 Real-Time PCR™ system (Applied Biosystems™, Foster City, Calif.). Target genes were normalized to a geometric average of 3 internal reference genes (Vandesompele et al., 2002).
# Cells were harvested and lysed in RIPA buffer (50 mM Tris-Cl pH 7.4, 150 mM NaCl, 1% Igepal, 0.5% Na-deoxycholate, 0.1% SDS) supplemented with a complete protease inhibitor cocktail (Roche, Nutley, N.J.). The protein concentration of the lysate was determined by Pierce BCA Protein Assay™ (Thermo Scientific™, Waltham, Mass.). The lysate was run on 8% SDS polyacrylamide gel (20 ug of protein per lane) and proteins were transferred onto PVDF membrane (Millipore™, Billerica, Mass.). The blot was blocked with the Odyssey™ blocking buffer (Li-cor Biosciences™) and probed with anti-MCT4 antibody. Vinculin was used as a loading control. Following overnight incubation at 4° C., the primary antibody was probed with the corresponding secondary antibody and detected using the Odyssey Infrared Imaging System™ (Li-cor Biosciences™) and Image Studio Version 3.1™ (Li-cor Biosciences™). Densitometry analysis was done using ImageJ (U.S. National Institutes of Health, Bethesda, Md.).
row,Substance,% MCT4 Inhibition [%]
1,18 (dC*dC*dC*dG*dT*dT*dG*dG*dC*dC*dA*dT*dG*dG*dG*dG*dC*dG*dC*dC; antisense; listed as Homo sapiens) [compound 18],71.14
2,19 (dG*dC*dC*dA*dG*dC*dC*dC*dG*dT*dT*dG*dG*dC*dC*dA*dT*dG*dG*dG; antisense; listed as Homo sapiens) [compound 19],80.26
3,20 (dA*dG*dG*dA*dA*dG*dA*dC*dA*dG*dG*dG*dC*dT*dA*dC*dC*dT*dG*dC; antisense; listed as Homo sapiens) [compound 20],66.26
4,21 (dG*dC*dA*dC*dA*dC*dA*dG*dG*dA*dA*dG*dA*dC*dA*dG*dG*dG*dC*dT; antisense; listed as Homo sapiens) [compound 21],60.36
5,22 (dC*dA*dG*dG*dG*dC*dA*dC*dA*dC*dA*dG*dG*dA*dA*dG*dA*dC*dA*dG; antisense; listed as Homo sapiens) [compound 22],79.96
6,23 (dC*dA*dG*dC*dA*dG*dT*dT*dG*dA*dG*dC*dA*dG*dC*dA*dG*dG*dC*dC; antisense; listed as Homo sapiens) [compound 23],65.41
7,24 (dG*dA*dC*dC*dT*dG*dT*dC*dC*dC*dG*dT*dA*dG*dA*dG*dC*dA*dT*dG; antisense; listed as Homo sapiens) [compound 24],47.24
8,25 (dT*dT*dC*dC*dC*dA*dA*dG*dC*dC*dC*dC*dG*dC*dC*dA*dC*dG*dA*dA; antisense; listed as Homo sapiens) [compound 25],22.88
9,26 (dA*dA*dT*dG*dC*dT*dC*dC*dA*dC*dC*dT*dC*dC*dC*dG*dC*dA*dA*dG; antisense; listed as Homo sapiens) [compound 26],9.55
10,27 (dA*dC*dC*dT*dC*dC*dC*dC*dG*dT*dT*dT*dT*dT*dC*dT*dC*dA*dG*dG; antisense; listed as Homo sapiens) [compound 27],3.17
11,28 (dT*dG*dT*dG*dA*dA*dC*dC*dA*dC*dC*dT*dC*dC*dC*dC*dG*dT*dT*dT; antisense; listed as Homo sapiens) [compound 28],29.91
12,29 (dT*dC*dT*dG*dT*dA*dC*dC*dT*dC*dC*dT*dC*dC*dC*dT*dG*dT*dG*dC; antisense; listed as Homo sapiens) [compound 29],16.31
13,30 (dG*dA*dA*dT*dG*dA*dC*dA*dC*dG*dG*dT*dT*dC*dC*dC*dA*dC*dC*dC; antisense; listed as Homo sapiens) [compound 30],25.51
14,31 (dG*dC*dC*dC*dA*dC*dC*dC*dA*dC*dC*dC*dT*dC*dC*dC*dA*dT*dT*dA; antisense; listed as Homo sapiens) [compound 31],-43.4
15,32 (dA*dA*dG*dA*dG*dA*dC*dC*dC*dC*dC*dC*dA*dC*dA*dA*dG*dC*dA*dT; antisense; listed as Homo sapiens) [compound 32],18.67
16,33 (dC*dC*dC*dA*dC*dC*dA*dT*dG*dC*dC*dG*dT*dA*dG*dG*dA*dG*dA*dT; antisense; listed as Homo sapiens) [compound 33],49.00
17,34 (dA*dG*dT*dC*dC*dA*dC*dC*dC*dC*dC*dG*dA*dG*dT*dC*dT*dG*dC*dA; antisense; listed as Homo sapiens) [compound 34],20.5

row,Substance,% MCT4 Inhibition [%]
1,35 (dC*dT*dT*dC*dA*dC*dC*dG*dC*dA*dG*dA*dT*dC*dC*dA*dC*dT*dC*dT; antisense; listed as Homo sapiens) [compound 35],-10.07
2,36 (dA*dA*dC*dA*dC*dT*dC*dC*dA*dC*dC*dC*dA*dC*dA*dC*dG*dC*dA*dG; antisense; listed as Homo sapiens) [compound 36],9.33
3,37 (dC*dC*dA*dG*dC*dC*dA*dC*dT*dC*dA*dG*dA*dC*dA*dC*dT*dT*dG*dT; antisense; listed as Homo sapiens) [compound 37],33.14
4,38 (dG*dG*dC*dC*dA*dC*dC*dG*dC*dC*dT*dC*dC*dA*dT*dC*dA*dG*dC*dA; antisense; listed as Homo sapiens) [compound 38],45.92
5,39 (dC*dC*dT*dG*dA*dG*dC*dC*dA*dG*dT*dC*dC*dA*dG*dT*dT*dT*dG*dT; antisense; listed as Homo sapiens) [compound 39],39.46
6,40 (dC*dC*dC*dA*dC*dC*dC*dA*dC*dC*dC*dT*dC*dC*dC*dA*dT*dT*dA*dA; antisense; listed as Homo sapiens) [compound 40],-42.05
7,41 (dG*dC*dT*dT*dC*dT*dG*dT*dA*dC*dC*dT*dC*dC*dT*dC*dC*dC*dT*dG; antisense; listed as Homo sapiens) [compound 41],17.02
8,42 (dT*dG*dT*dC*dG*dC*dT*dG*dT*dA*dG*dC*dC*dG*dA*dT*dC*dC*dC; antisense; listed as Homo sapiens) [compound 42],21.20
9,"43 (TTAAAGTCACGTTGTCTCG; listed as DNA, chemistry not fully specified; listed as Homo sapiens) [compound 43]",0.27
10,"44 (TTGCGGCTTGGCTTCACCG; listed as DNA, chemistry not fully specified; listed as Homo sapiens) [compound 44]",31.16
11,45 (dC*dA*dC*dA*dG*dC*dT*dC*dC*dT*dC*dC*dC*dA*dT*dG*dG*dC*dC*dA*dG*dG; listed as Rattus norvegicus) [compound 45],22.4
12,46 (dA*dT*dG*dG*dC*dC*dA*dG*dG*dA*dG*dG*dG*dT*dT*dG; antisense; listed as Homo sapiens) [compound 46],76.03
13,47 (dC*dA*dT*dG*dG*dC*dC*dA*dG*dG*dA*dG*dG*dG*dT*dT; antisense; listed as Homo sapiens) [compound 47],81.21
14,48 (dC*dC*dA*dT*dG*dG*dC*dC*dA*dG*dG*dA*dG*dG*dG*dT; antisense; listed as Homo sapiens) [compound 48],77.65
15,49 (dC*dC*dC*dA*dT*dG*dG*dC*dC*dA*dG*dG*dA*dG*dG*dG; antisense; listed as Homo sapiens) [compound 49],65.76
16,50 (dT*dC*dC*dC*dA*dT*dG*dG*dC*dC*dA*dG*dG*dA*dG*dG; antisense; listed as Homo sapiens) [compound 50],30.52
17,51 (dC*dC*dT*dT*dC*dC*dC*dT*dG*dA*dA*dG*dG*dT*dT*dC*dC*dT*dC*dC; antisense) [compound 51],0.00

# Same assay, conditions: Table B; SEQ ID NO 1 and 16 mer truncations
row,Substance,% MCT4 Inhibition [%]
1,46 (dA*dT*dG*dG*dC*dC*dA*dG*dG*dA*dG*dG*dG*dT*dT*dG; antisense; listed as Homo sapiens) [compound 46],76.03
2,47 (dC*dA*dT*dG*dG*dC*dC*dA*dG*dG*dA*dG*dG*dG*dT*dT; antisense; listed as Homo sapiens) [compound 47],81.21
3,48 (dC*dC*dA*dT*dG*dG*dC*dC*dA*dG*dG*dA*dG*dG*dG*dT; antisense; listed as Homo sapiens) [compound 48],77.65
4,49 (dC*dC*dC*dA*dT*dG*dG*dC*dC*dA*dG*dG*dA*dG*dG*dG; antisense; listed as Homo sapiens) [compound 49],65.76
5,50 (dT*dC*dC*dC*dA*dT*dG*dG*dC*dC*dA*dG*dG*dA*dG*dG; antisense; listed as Homo sapiens) [compound 50],30.52

# Reference: patent publication US11466273B2, “Monocarboxylate transporter 4 (MCT4) antisense oligonucleotide (ASO) inhibitors for use as therapeutics in the treatment of cancer” (THE UNIVERSITY OF BRITISH COLUMBIA, priority 2015, dated 2022)
